# Experimental data taken from patent US20060057101A1, “German cockroach attractant” (priority 2004, published 2006).
# Legend:
# [1] = test system: male German cockroaches; assay: two-choice olfactometer behavioral assay; assay type: in vivo, Blattella germanica
# Protocol: FIG. 3 is a graphic representation of behavioral responses of male German cockroaches to one female equivalent of a crude extract of many virgin females and to various doses of the synthetic pheromone, gentisyl quinone isovalerate. The pheromone was applied in 20 μl of methylene chloride to a filter paper disc and presented to single males acclimated in the two-choice olfactometer vs. a methylene chloride control filter paper. Behavioral response is defined as quiescent males that were activated and ran out of their cage. Each assay consisted of testing 10-16 males in individual olfactometers and the assays were replicated 3-18 times. The mean responses and SEM are indicated.
# FIG. 4 is a graphic representation of behavioral responses of male German cockroaches to one female equivalent of a crude extract of many virgin females and to various doses of the synthetic pheromone, gentisyl quinone isovalerate. Procedures are as in FIG. 3, but reported is the latency in seconds before males left their cages.
# The biological activity of extracts and fractions was assayed both behaviorally and with an electroantennogram (“EAG”). Schal et al., “Site of Pheromone Production in Female Supella longipalpa (F.) (Dictyoptera: Blattellidae): Behavioral, Electrophysiological, and Morphological Evidence,” Annals Entomol. Soc. Amer. 85:605-611 (1992), which is hereby incorporated by reference in its entirety. For behavioral assays a two-choice olfactometer was used. Liang et al., “Effects of Pheromone Concentration and Photoperiod on the Behavioral Response Sequence to Sex Pheromone in the Male Brown-Banded Cockroach, Supella longipalpa,” J. Insect Behavior 3:211-223 (1990), and Liang et al., “Volatile Sex Pheromone in the Female German Cockroach,” Experientia 49:324-328 (1993a), which are hereby incorporated by reference in their entirety. Briefly, a straight Plexiglas tube (55 cm long and 3 cm ID) was divided along 15 cm of its upwind end and air was drawn through it at 20 cm/min. […] The percentage of insects running upwind and the latency, in seconds, before they responded were recorded.
# [2] = test system: brownbanded cockroach males; conditions: cited from earlier work
Compound,"males responding (quiescent males activated and running out of their cage) ([1]; 10-100 ng of the pheromone on filter paper, FIG. 3)","latency of the male response before leaving cage ([1]; doses between 10 ng and 1 μg, FIG. 4)","dose-response of male behavioral response ([1]; various doses on filter paper, FIG. 3)","increase in number of adult males trapped relative to respective controls ([2]; all treatments, field traps)","attractiveness to males in the field ([2]; field, jar traps)"
"CC(C)CC(=O)OCC1=CC(=O)C=CC1=O [synthetic pheromone, gentisyl quinone isovalerate]",More than 60%,shortest latency,clear dose-response,–,–
supellapyrone,–,–,–,6-28 times,highly attractive
